What was measured:
human EP1 receptor [1] = biological target: T1, human EP1 receptor (Homo sapiens, UniProt P34995); experiment: Test 2: Measurement of IP1 responses by HTRF, suspended HEK-293 cells stably expressing human EP1 receptors, PGE2 30 nM; assay type: cell-based; parameters: expressed in transfected cells; conditions: for inhibition at 10 µM: HEK293, at 10 μM, read-out: Results of Test 2 (Functional assay), % inh
T1 sequence (P34995 1-402): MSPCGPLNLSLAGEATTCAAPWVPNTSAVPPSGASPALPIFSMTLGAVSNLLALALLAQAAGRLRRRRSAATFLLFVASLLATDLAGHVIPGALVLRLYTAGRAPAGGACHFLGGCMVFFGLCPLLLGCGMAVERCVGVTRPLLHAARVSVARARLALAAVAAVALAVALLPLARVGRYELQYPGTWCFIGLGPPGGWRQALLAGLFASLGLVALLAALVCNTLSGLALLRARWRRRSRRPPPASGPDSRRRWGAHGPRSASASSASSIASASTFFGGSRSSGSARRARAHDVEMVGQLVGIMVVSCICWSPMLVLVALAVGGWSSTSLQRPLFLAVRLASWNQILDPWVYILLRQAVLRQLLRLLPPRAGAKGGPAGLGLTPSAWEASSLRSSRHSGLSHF
Experimental: Test 2: Measurement of IP1 responses by Homogeneous Time Resolved Fluorescence
IP1 measurements on HEK-293 cells that stably expressed human EP1 receptors were performed by using a system based on Homogeneous Time Resolved Fluorescense (HTRF) (Gabriel et al., 2003). This technology allows the direct measurement of IP1 in living cells. The principle of this assay is based on competition between IP1 produced by cells and IP1-d2 conjugate for the binding with monoclonal anti-IP1-cryptate conjugate. The HTRF IP1 kit from CisBio was used according to the manufacturer's directions. The experimental procedure was performed as stated below.
Suspended cells (30,000 cells per well) were added to 96-well culture plates in 40 μl of stimulation buffer (supplied by the kit). Compounds were then added in 20 μl of stimulation buffer and incubated at 37° C. for 15 minutes followed by 10 μl of PGE2 to a final concentration of […]. After 90 minutes at 37° C., the reaction was stopped lysing the cells with a mixture of 15 μl of cryptate and 15 μl of IP1-d2 prepared in the lysis buffer supplied by the manufacturer. Plates were incubated for an additional hour at room temperature and read at 665 nm/620 nm using an UltraEvolution Plate reader (Tecan).
Antagonist percentage inhibition was calculated relating compounds activity to the 0% inhibition of the wells incubated with 10 nM PGE2 alone and 100% inhibition of the wells incubated with 10 nM PGE2 plus 1 μM of the reference antagonist.

human EP1 receptor [2] = biological target: T1, human EP1 receptor; experiment: Test 1: Human EP1 receptor radioligand binding assay ([3H]-PGE2, transfected HEK-293 cell membranes); parameters: expressed in transfected cells; host or cells: HEK-293 cell membranes; conditions: read-out: Results of Test 1 (Binding assay), % inh
Experimental: Test 1: Human EP1 Receptor Radioligand Binding Assay
To investigate binding properties of EP1 receptor ligands to human EP1 receptor, transfected HEK-293 cell membranes and [3H]-PGE2 (Perkin Elmer) were used. In 96-well plates the assay was carried out with a total reaction volume of 250 μl, containing 25 μl of membrane suspension (30 μg protein/well), 25 μl of [3H]-PGE2 (10 nM) in either absence or presence of 25 μl of either buffer or PGE2 (10 μM) for total and non-specific binding, respectively. Binding buffer contained 10 mM MES, 1 mM MgCl2 and 1 mM EDTA at pH 6.0. Plates were incubated at 25° C. for 60 minutes. After the incubation period, 200 μl of incubate were transferred to MultiScreen HTS, FB plates (Millipore), filtered and plates were washed 6 times with ice-cold 10 mM MES, 1 mM MgCl2 and 1 mM EDTA at pH 6.0. Filters were dried and counted in a MicroBeta scintillation counter (Perkin-Elmer) using EcoScint liquid scintillation cocktail.
Percentage inhibition was calculated relating compounds activity to the 0% inhibition of the wells incubated with 10 nM [3H]-PGE2 alone (total binding) and 100% inhibition of the wells incubated with 10 nM [3H]-PGE2 plus 10 μM PGE2 (non-specific binding).

Row | inhibition at 10 µM (human EP1 receptor [1]) [%] | inhibition at 10 µM (human EP1 receptor [2]) [%] | Results of Test 2 (Functional assay), % inh (human EP1 receptor [1]; at 10 μM) | SMILES
1 | > 75 | > 75 |  | O=C(O)c1cccc2c1ccn2Cc1cc(Cl)ccc1OCc1ccc(C(F)(F)F)cc1 [Example 11, 1-(5-chloro-2-((4-(trifluoromethyl)benzyl)oxy)benzyl)-1H-indole-4-carboxylic acid]
2 | > 75 | > 75 |  | O=C(O)c1cccc2c1ccn2Cc1cc(Cl)ccc1OCc1ccc(F)cc1Cl [Example 12, 1-(5-chloro-2-((2-chloro-4-fluorobenzyl)oxy)benzyl)-1H-indole-4-carboxylic acid]
3 | > 75 | 45 to 75 |  | O=C(O)c1cccc2c1ccn2Cc1cc(Cl)ccc1OCc1c(F)c(F)cc(F)c1F [Example 13, 1-(5-chloro-2-((2,3,5,6-tetrafluorobenzyl)oxy)benzyl)-1H-indole-4-carboxylic acid]
4 | > 75 | > 75 |  | O=C(O)c1cccc2c1ccn2Cc1cc(Cl)ccc1OCc1ccc(C(F)(F)F)cc1C(F)(F)F [Example 14]
5 | > 75 | 45 to 75 |  | O=C(O)c1cccc2c1ccn2Cc1cc(Cl)ccc1OCc1ccc(F)c(Br)c1 [Example 17, 1-(2-((3-bromo-4-fluorobenzyl)oxy)-5-chlorobenzyl)-1H-indole-4-carboxylic acid]
6 | > 75 | 45 to 75 |  | O=C(O)c1cccc2c1ccn2Cc1cc(F)ccc1OCc1ccc(F)cc1Cl [Example 19, 1-(2-((2-chloro-4-fluorobenzyl)oxy)-5-fluorobenzyl)-1H-indole-4-carboxylic acid]
7 | > 75 | 45 to 75 |  | O=C(O)c1cccc2c1ccn2Cc1cc(Cl)ccc1OCc1ccc(F)c(F)c1F [Example 21, 1-(5-chloro-2-((2,3,4-trifluorobenzyl)oxy)benzyl)-1H-indole-4-carboxylic acid]
8 | > 75 | 45 to 75 |  | O=C(O)c1cccc2c1ccn2Cc1cc(F)ccc1OCc1ccc(F)c(Br)c1 [Example 24, 1-(2-((3-bromo-4-fluorobenzyl)oxy)-5-fluorobenzyl)-1H-indole-4-carboxylic acid]
9 | > 75 | 45 to 75 |  | O=C(O)c1cccc2c1ccn2Cc1cc(Br)ccc1OCc1ccc(F)c(Br)c1 [Example 25, 1-(5-bromo-2-((3-bromo-4-fluorobenzyl)oxy)benzyl)-1H-indole-4-carboxylic acid]
10 | > 75 | > 75 |  | O=C(O)c1cccc2c1ccn2Cc1cc(Cl)ccc1OCc1cc(F)ccc1F [Example 29, 1-(5-chloro-2-((2,5-difluorobenzyl)oxy)benzyl)-1H-indole-4-carboxylic acid]
11 | > 75 | 45 to 75 |  | O=C(O)c1cccc2c1ccn2Cc1cc(F)ccc1OCc1c(F)cccc1F [Example 33, 1-(2-((2,6-difluorobenzyl)oxy)-5-fluorobenzyl)-1H-indole-4-carboxylic acid]
12 | > 75 | 45 to 75 |  | O=C(O)c1cccc2c1ccn2Cc1cc(F)ccc1OCc1cc(F)c(F)c(F)c1 [Example 34, 1-(5-fluoro-2-((3,4,5-trifluorobenzyl)oxy)benzyl)-1H-indole-4-carboxylic acid]
13 | > 75 | > 75 |  | O=C(O)c1cccc2c1ccn2Cc1cc(Cl)ccc1OCc1ccccc1F [Example 45, 1-(5-chloro-2-((2-fluorobenzyl)oxy)benzyl)-1H-indole-4-carboxylic acid]
14 | > 75 | > 75 |  | O=C(O)c1cccc2c1ccn2Cc1cc(Cl)ccc1OCc1ccc(C(F)(F)F)cc1F [Example 47, 1-(5-chloro-2-((2-fluoro-4-(trifluoromethyl)benzyl)oxy)benzyl)-1H-indole-4-carboxylic acid]
15 | > 75 | > 75 |  | O=C(O)c1cccc2c1ccn2Cc1cc(Cl)ccc1OCc1ccc(Cl)cc1F [Example 48, 1-(5-chloro-2-((4-chloro-2-fluorobenzyl)oxy)benzyl)-1H-indole-4-carboxylic acid]
16 | > 75 | 45 to 75 |  | O=C(O)c1cccc2c1ccn2Cc1cc(C(F)(F)F)ccc1OCc1cccc(F)c1 [Example 49, 1-(2-((3-fluorobenzyl)oxy)-5-(trifluoromethyl)benzyl)-1H-indole-4-carboxylic acid]
17 | > 75 | 45 to 75 |  | O=C(O)c1cccc2c1ccn2Cc1cc(C(F)(F)F)ccc1OCc1ccc(F)cc1F [Example 51, 1-(2-((2,4-difluorobenzyl)oxy)-5-(trifluoromethyl)benzyl)-1H-indole-4-carboxylic acid]
18 | > 75 | 45 to 75 |  | O=C(O)c1cccc2c1ccn2Cc1ccccc1OCc1ccc(F)cc1F [Example 54, 1-(2-((2,4-difluorobenzyl)oxy)benzyl)-1H-indole-4-carboxylic acid]
19 | > 75 |  |  | O=C(O)/C=C/c1cccc2c1ccn2Cc1cc(Cl)ccc1OCc1ccc(Cl)cc1F [Example 83, (E)-3-(1-(5-chloro-2-((4-chloro-2-fluorobenzyl)oxy)benzyl)-1H-indol-4-yl)acrylic acid]
20 | > 75 |  |  | O=C(O)COc1cccc2c1ccn2Cc1cc(C(F)(F)F)ccc1OCc1ccc(Cl)cc1F [Example 84, 2-((1-(2-((4-chloro-2-fluorobenzyl)oxy)-5-(trifluoromethyl)benzyl)-1H-indol-4-yl)oxy)acetic acid]
21 | > 75 |  |  | O=C(O)COc1cccc2c1ccn2Cc1cc(Cl)ccc1OCC1CC1 [Example 85, 2-((1-(5-chloro-2-(cyclopropylmethoxy)benzyl)-1H-indol-4-yl)oxy)acetic acid]
22 | > 75 |  |  | O=C(O)c1ccc2ccn(Cc3cc(Br)ccc3OCc3ccccc3)c2c1 [Example 87, 1-(2-(benzyloxy)-5-bromobenzyl)-1H-indole-6-carboxylic acid]
23 |  |  | $$ (45 < % inh < 75) | O=C(O)CCc1cccc2c1ccn2Cc1cc(Cl)ccc1OCc1ccc(Cl)cc1F [Example 89, 3-(1-(5-chloro-2-((4-chloro-2-fluorobenzyl)oxy)benzyl)-1H-indol-4-yl)propanoic acid]
24 | > 75 |  |  | O=C(O)c1ccnc2c1ccn2Cc1cc(Cl)ccc1OCc1ccc(Cl)cc1F [Example 90, 1-(5-chloro-2-((4-chloro-2-fluorobenzyl)oxy)benzyl) -1H-pyrrolo[2,3-b]pyridine-4-carboxylic acid]
25 | 45 to 75 |  |  | O=C(O)c1cccc2c1ncn2Cc1cc(Cl)ccc1OCc1ccc(Cl)cc1F [Example 92, 1-(5-chloro-2-((4-chloro-2-fluorobenzyl)oxy)benzyl) -1H-benzo[d]imidazole-4-carboxylic acid]
26 | > 75 |  |  | O=C(O)c1cccc2c1CCN2Cc1cc(Cl)ccc1OCc1ccc(Cl)cc1F [Example 93, 1-(5-chloro-2-((4-chloro-2-fluorobenzyl)oxy)benzyl)indoline-4-carboxylic acid]
27 | > 75 |  |  | O=C(O)c1cccc2c1CCCN2Cc1cc(Cl)ccc1OCc1ccc(Cl)cc1F [Example 94, 1-(5-chloro-2-((4-chloro-2-fluorobenzyl)oxy)benzyl) -1,2,3,4-tetrahydroquinoline-5-carboxylic acid]
28 | > 75 |  |  | O=C(O)c1cccc2c1CCCN2Cc1cc(Cl)ccc1OCc1ccc(F)cc1F [Example 95]
29 | > 75 |  |  | O=C(O)c1ccc(F)c2c1ccn2Cc1cc(Cl)ccc1OCc1ccc(F)cc1F [Example 100, sodium 1-(5-chloro-2-((2,4-difluorobenzyl)oxy)benzyl)-7-fluoro-1H-indole-4-carboxylate]
